Consider 55 molecules from patent publication US7332608B2, “Anthranilamides and methods of their use” (SANOFI-AVENTIS Deutschland GmbH, priority 2001, dated 2008).

The target of the assay is T1, Human Kv1.5 channels (Homo sapiens, UniProt P22460).
T1 construct: expressed in transfected cells; host or cells: Xenopus laevis oocytes injected with in vitro synthesized Kv1.5-encoding RNA
T1 sequence (P22460 whole entry): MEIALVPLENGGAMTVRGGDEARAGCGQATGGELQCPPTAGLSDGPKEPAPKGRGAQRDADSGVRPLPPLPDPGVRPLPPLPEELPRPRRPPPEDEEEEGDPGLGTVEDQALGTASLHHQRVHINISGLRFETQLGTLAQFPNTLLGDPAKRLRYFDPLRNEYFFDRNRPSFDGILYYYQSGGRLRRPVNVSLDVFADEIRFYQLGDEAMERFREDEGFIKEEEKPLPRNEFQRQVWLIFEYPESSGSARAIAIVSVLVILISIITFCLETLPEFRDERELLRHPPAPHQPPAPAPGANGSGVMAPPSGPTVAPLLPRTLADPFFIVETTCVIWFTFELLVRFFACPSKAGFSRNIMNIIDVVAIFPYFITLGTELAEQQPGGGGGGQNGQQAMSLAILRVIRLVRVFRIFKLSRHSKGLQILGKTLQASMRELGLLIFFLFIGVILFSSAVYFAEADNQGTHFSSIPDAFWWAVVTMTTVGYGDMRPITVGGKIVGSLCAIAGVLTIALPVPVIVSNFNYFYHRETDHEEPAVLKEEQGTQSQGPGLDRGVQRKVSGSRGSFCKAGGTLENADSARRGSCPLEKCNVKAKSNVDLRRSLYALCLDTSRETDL
The assay can be described thus: Kv1.5 currents in Xenopus oocytes, two-microelectrode voltage clamp. The format is cell-based. Particulars: human Kv1.5 expressed in Xenopus laevis oocytes; voltage jumps 500 ms to 0 mV and 40 mV; room temperature; Hill equation. On the procedure:
Human Kv1.5 channels were expressed in Xenopus oocytes. For this purpose, firstly ooytes were isolated from Xenopus laevis and were defolliculated. Kv1.5-encoding RNA which had been synthesized in vitro was then injected into these oocytes. After 1-7 days of Kv1.5 protein expression, the Kv1.5 currents were measured on the oocytes by the two-microelectrode voltage clamp technique. The Kv1.5 channels were for this purpose usually activated with voltage jumps lasting 500 ms to 0 mV and 40 mV. A solution of the following composition flowed through the bath: NaCl 96 mM, KCl 2 mM, CaCl2 1.8 mM, MgCl2 1 mM, HEPES 5 mM (titrated to pH 7.4 with NaOH). These experiments were carried out at room temperature. The following were employed for data acquisition and analysis: geneclamp amplifier (Axon Instruments, Foster City, USA) and MacLab D/A converter and software (ADInstruments, Castle Hill, Australia). The compounds of the invention were tested by adding them in various concentrations to the bath solution. The effects of the compounds were calculated as percentage inhibition of the Kv1.5 control current which was obtained when no compound was added to the solution. The data were then extrapolated using the Hill equation in order to determine the inhibitory concentrations IC50 for the respective compounds.
Usually IC50 stands for the concentration needed to halve the response being measured. Low readings indicate inhibition by little substance, high ones a need for much substance. Turning to `COc1cccc([C@H](C)NC(=O)c2cc(OC)ccc2NS(=O)(=O)c2ccc(C)cc2)c1` [Example 96], the 50% inhibitory concentration (IC50) turned out to be 1000 nM.

As for `COc1ccc([C@H](C)NC(=O)c2cc(OC)ccc2NS(=O)(=O)c2ccc(C)cc2)cc1` [Example 97], the concentration for half-maximal inhibition (IC50) was 900 nM.

In the case of `C[C@@H](c1ccccc1)N(C)C(=O)c1ccccc1NS(=O)(=O)c1ccccc1` [Example 98], it took 2000 nM to reach half-maximal inhibition (IC50). In turn, `CC[C@@H](NC(=O)c1cc(OC)ccc1NS(=O)(=O)c1ccc(C)cc1)c1ccccc1` [Example 99] showed an IC50 of 900 nM. `Cc1ccc(S(=O)(=O)Nc2ccc(F)cc2C(=O)N(Cc2ccccc2)CC2CCCO2)cc1` (stereo not shown) [Example 100]: the IC50 amounted to 1600 nM. With `Cc1ccc(S(=O)(=O)Nc2ccc(F)cc2C(=O)N(Cc2ccccc2)Cc2cccc(C)n2)cc1` [Example 101] the figure was 900 nM; with `Cc1ccc(S(=O)(=O)Nc2ccc(F)cc2C(=O)N(Cc2ccccc2)Cc2ccn[nH]2)cc1` [Example 102], 700 nM. To `COc1ccc(NS(=O)(=O)c2ccc(C)cc2)c(C(=O)NC(C)(C)c2ccccc2)c1` [Example 103] belongs 1400 nM. In turn, `COc1ccc(NS(=O)(=O)c2ccc(C)cc2)c(C(=O)NC(C)c2ccc(F)cc2)c1` (stereo not shown) [Example 104] yielded an IC50 of 1000 nM. With `C[C@H](c1ccccc1)N(C)C(=O)c1ccccc1NS(=O)(=O)c1ccccc1` [Example 105], the IC50 is 2600 nM. To `CC[C@H](NC(=O)c1cc(F)ccc1NS(=O)(=O)c1ccc(Cl)cc1)c1ccccc1` [Example 106] belongs 3800 nM. The molecule `Cc1ccc(S(=O)(=O)Nc2ccc(F)cc2C(=O)N(Cc2ccc(F)cc2)Cc2nccn2C)cc1` [Example 107] returned an IC50 of 900 nM. With `Cc1ccc(S(=O)(=O)Nc2ccc(F)cc2C(=O)N(Cc2ccc(F)cc2)Cc2ccn[nH]2)cc1` [Example 108] the figure was 1200 nM; with `Cc1ccc(S(=O)(=O)Nc2ccccc2C(=O)N(Cc2ccc(F)cc2)Cc2nccn2C)cc1` [Example 109], 1100 nM. Molecule `Cc1ccc(S(=O)(=O)Nc2ccc(F)cc2C(=O)N(Cc2ccccc2)Cc2nccs2)cc1` [Example 110] returned an IC50 of 1000 nM.

Regarding `Cc1ccc(S(=O)(=O)Nc2ccccc2C(=O)N(Cc2nn(C)cc2Cl)CC2CC2)cc1` [Example 111], the IC50 was found to be 1700 nM.

As for `Cc1ccc(S(=O)(=O)Nc2ccccc2C(=O)N(Cc2ccccc2)Cc2ccn[nH]2)cc1` [Example 112], the IC50 was determined as 500 nM. To `Cc1ccc(S(=O)(=O)Nc2ccccc2C(=O)N(Cc2cccc(C)n2)CC2CC2)cc1` [Example 113] belongs 2600 nM; to `CCCCS(=O)(=O)Nc1ccc(C)cc1C(=O)N[C@H](CC)c1ccccc1` [Example 114], 1400 nM. With `CC[C@H](NC(=O)c1cc(F)ccc1NS(=O)(=O)c1ccc(C)cc1)c1ccccc1` [Example 115] the figure was 2400 nM; with `Cc1ccc(S(=O)(=O)Nc2ccccc2C(=O)N(Cc2ccccc2)CC2CCCO2)cc1` (stereo not shown) [Example 116], 1100 nM.

For the molecule `Cc1ccc(S(=O)(=O)Nc2ccccc2C(=O)N(Cc2ccc(F)cc2)Cc2cccc(C)n2)cc1` [Example 117], the IC50 is 2400 nM. For `Cc1ccc(S(=O)(=O)Nc2ccccc2C(=O)N(Cc2cccnc2)Cc2cccc(C)n2)cc1` [Example 118], the IC50 was found to be 2200 nM.

Take `Cc1ccc(S(=O)(=O)Nc2ccccc2C(=O)N(Cc2nccs2)CC2CCCCC2)cc1` [Example 119]: half-maximal inhibition (IC50) was put at 2700 nM. With `Cc1ccc(S(=O)(=O)Nc2ccccc2C(=O)N(Cc2cccc(C)n2)CC2CCCO2)cc1` (stereo not shown) [Example 120] the figure was 1400 nM. As for `Cc1ccc(S(=O)(=O)Nc2ccccc2C(=O)N(Cc2cccc(C)n2)Cc2ccco2)cc1` [Example 121], the 50% inhibitory concentration (IC50) amounted to 600 nM. With `Cc1ccc(S(=O)(=O)Nc2ccccc2C(=O)N(Cc2ccco2)Cc2nccn2C)cc1` [Example 122] the figure was 1200 nM; with `CCCCS(=O)(=O)Nc1ccccc1C(=O)N(Cc1cccnc1)Cc1cccc(C)n1` [Example 123], 2900 nM; with `COc1ccc(NS(=O)(=O)c2ccc(C)cc2)c(C(=O)NC(c2ccccn2)C2CC2)c1` (stereo not shown) [Example 124], 1000 nM.

As for `CCCCS(=O)(=O)Nc1ccc(C)cc1C(=O)NC(c1ccccn1)C1CC1` (stereo not shown) [Example 125], the IC50 worked out at 1800 nM. In the case of `Cc1ccc(S(=O)(=O)Nc2ccc(C)cc2C(=O)NC(c2ccccn2)C2CC2)cc1` (stereo not shown) [Example 126], the half-maximal inhibitory concentration (IC50) stood at 600 nM. With `CCCCS(=O)(=O)Nc1ccc(C)cc1C(=O)NC(c1cccc(OC)n1)C1CC1` (stereo not shown) [Example 127] the figure was 3300 nM. `C#CC(NC(=O)c1cc(C)ccc1NS(=O)(=O)CCCC)c1ccccc1` (stereo not shown) [Example 128] had an IC50 of 2200 nM. Molecule `CCCCS(=O)(=O)Nc1ccc(C)cc1C(=O)NC(c1ccc(OC)nc1)C1CC1` (stereo not shown) [Example 129] displayed an IC50 of 1300 nM. `CCC(c1ccccc1)N(C)C(=O)c1ccccc1NS(=O)(=O)c1ccccc1` (stereo not shown) [Example 130] yielded an IC50 of 700 nM. With `COc1ccc(NS(=O)(=O)c2ccc(C)cc2)c(C(=O)NC(c2cccnc2)C2CC2)c1` (stereo not shown) [Example 131] the figure was 700 nM; with `COc1ccc(NS(=O)(=O)c2ccc(C)cc2)c(C(=O)NC(C)Cc2ccccn2)c1` (stereo not shown) [Example 133], 1400 nM. To `COc1ccc(S(=O)(=O)Nc2ccc(OC)cc2C(=O)NC(c2cccnc2)C2CC2)cc1` (stereo not shown) [Example 134] belongs 900 nM; to `CCC(NC(=O)c1cc(OC)ccc1NS(=O)(=O)c1ccc(C)cc1)c1ccc(C)o1` (stereo not shown) [Example 135], 1200 nM; to `CCCCS(=O)(=O)Nc1ccc(C)cc1C(=O)NC(CC)c1ccc(C)o1` (stereo not shown) [Example 136], 900 nM. To `CCCCS(=O)(=O)Nc1ccc(C)cc1C(=O)NC(CC)Cc1cccnc1` (stereo not shown) [Example 138] belongs 1800 nM. Turning to `CCC(NC(=O)c1cc(OC)ccc1NS(=O)(=O)c1ccc(C)cc1)c1ccc(OC)nc1` (stereo not shown) [Example 139], the IC50 came out at 1000 nM.

Molecule `CCC(Cc1c[nH]c2ccccc12)NC(=O)c1cc(OC)ccc1NS(=O)(=O)c1ccc(C)cc1` (stereo not shown) [Example 140] registered an IC50 of 1400 nM. In turn, `CCC(NC(=O)c1cc(OC)ccc1NS(=O)(=O)c1ccc(C)cc1)c1ccc(C)nc1` (stereo not shown) [Example 141] yielded an IC50 of 1100 nM. Consider `CCC(Cc1ccccn1)NC(=O)c1cc(OC)ccc1NS(=O)(=O)c1ccc(C)cc1` (stereo not shown) [Example 142], for which the IC50 came to 700 nM. To `COc1ccc(NS(=O)(=O)c2ccc(C)cc2)c(C(=O)N[C@H]2CC[C@H](C)CC2)c1` [Example 143] belongs 3600 nM; to `CCCCS(=O)(=O)Nc1ccc(C)cc1C(=O)NC(CC)c1cccnc1` (stereo not shown) [Example 144], 2800 nM. In turn, `CCC(NC(=O)c1ccccc1NS(=O)(=O)c1ccc(C)cc1)c1ccco1` (stereo not shown) [Example 145] gave an IC50 of 2600 nM.

On to `CCC(NC(=O)c1cc(C)ccc1NS(=O)(=O)C1CC1)c1ccc(C)o1` (stereo not shown) [Example 146], for which the IC50 is 2500 nM. With `CC[C@H](NC(=O)c1cc(OC)ccc1NS(=O)(=O)CC)c1ccccc1` [Example 147] the figure was 3800 nM; with `CCCS(=O)(=O)Nc1ccc(OC)cc1C(=O)N[C@@H](CC)c1ccccc1` [Example 148], 2100 nM; with `CC[C@H](NC(=O)c1cc(OC)ccc1NS(=O)(=O)C(C)C)c1ccccc1` [Example 149], 2200 nM. With `CC[C@H](NC(=O)c1cc(OC)ccc1NS(=O)(=O)c1ccc(OC)cc1)c1ccccc1` [Example 150] the figure was 300 nM; with `CC[C@H](NC(=O)c1ccccc1NS(=O)(=O)c1ccc(OC)c(OC)c1)c1ccccc1` [Example 151], 1500 nM.

In turn, `CC[C@H](NC(=O)c1cc(O)ccc1NS(=O)(=O)c1ccc(C)cc1)c1ccccc1` [Example 152, 5-Hydroxy-N-(1-phenylpropyl)-2-(toluene-4-sulfonylamino)benzamide] registered an IC50 of 2600 nM.
